Measurements: PMC5761851, “Application of a phenotypic drug discovery strategy to identify biological and chemical starting points for inhibition of TSLP production in lung epithelial cells” (PLoS ONE, 2018)
Values joined by “and” are separate entries in the source; they are usually repeats but may differ in a detail not shown here. Identical values can stand only once. Like-named read-outs stand apart in the source and are kept apart here.

Columns and labels:
[1] = system: TSLP production in NHBE cells; assay: TSLP HTRF assay (TSLP production in poly I:C / IL-4 stimulated NHBE cells); type: cell-based, human
Description: For dose response curves determinations, stocks of test compounds at a concentration of 1.33x10^-3 M in DMSO were sequentially diluted at 1:4 dilution steps before further 1/50 dilution in BEBM medium containing 1x ITS and 0.1% BSA. For the highest 4 μM concentration test compounds were resuspended in DMSO at a concentration of 2.5x10^-3 M and diluted 1/25 in BEBM medium containing 1x ITS and 0.1% BSA before adding 1 μl to the wells containing the cells.
All subsequent steps were automated using a Sciclone® G3 workstation (Perkin Elmer) with a Twister™ II robot (Perkin Elmer). […] 1 μl of test compound solution prepared at 25x concentration was added to the wells containing NHBE cells. The plates were then incubated during 90 minutes at 37°C, 5% CO2, 90% humidity before adding poly I:C (Invivogen HMW Tirl-pic-5) and human IL-4 (Peprotech 200–04) stimulus in 4 μl of BEBM medium containing 1x ITS, 0.1% BSA and 0.1% DMSO using a Multidrop™. […] Cells were then incubated for 24h in the presence of test compounds and stimulus at 37°C, 5% CO2 and 90% humidity conditions. After the 24h incubation period the plates were transferred to a CyBi®-Well platform (CyBio AG) to collect 10 μl of the supernatants which were transferred to a new plate. TSLP levels in the supernatant were determined using a homogeneous Time-Resolved Fluorescence (HTRF) assay custom developed by Cisbio. The assay was based in the use of a donor dye (europium cryptate) coupled to a monoclonal anti-TSLP antibody and an acceptor dye (d2) coupled to a second polyclonal anti-TSLP antibody. […] 10 μl of the resulting solution was then used to determine TSLP levels as described above.
The standard curve was built with eight points prepared in ITS/BSA in BEBM medium without supplements, starting at 700 pg/ml and diluted 1:2, with medium alone being zero TSLP. Fitting model corresponded to equation 100 of Excel fit software. Data from the primary phenotypic screen was visualized using Vortex (Dotmatics). […] For compound selection the maximum inhibition of the two individual duplicate values was taken into account. Dose response confirmation was performed at single point in the 2 donors tested. 9 point curves were run starting at 4 μM concentration by doing serial 1:4 dilutions in cells derived from both donors.

[2] = system: LAD2 cells degranulation; assay: Syk dependent LAD2 cells degranulation; type: cell-based, human
Description: Normal human bronchial epithelial cells (NHBE) (Lonza CC-2540,) corresponding to 2 different lots derived from 2 human healthy donors, henceforth referred to as donors #1 and #2, were purchased from Lonza, who provided the cells after obtaining permission for use in research applications by informed consent. Cells were cultured in 5% CO2 at 37°C according to the manufacturer´s instructions using Lonza´s Bronchial Epithelial Basal Medium (BEBM) (CC-3171) supplemented with Lonza´s Bronchial Epithelial Cell Growth Medium bullet kit (BEGM) (CC-4175), and grown in collagen coated T-75 and T-175 tissue culture flasks as required (Becton Dickinson 356485 and 356487). Subculturing after trypsinization and amplification was performed using Lonza´s reagent pack subculture reagents (CC-5034) following the manufacturer´s instructions. CHO-K1 and THP-1 cells were purchased from the ATCC through LGC standards (ATCC CCL-61 and TIB-202 respectively). The LAD2 cell line is a human mast cell line established at the National Institutes of Health (Bethesda, Maryland, U.S.).
Quantification of enzymatic p38 activity and p38-dependent TNF production in THP-1 cells was performed as previously described. Enzymatic Syk kinase activity assays and Syk dependent LAD2 cells degranulation assays were performed as previously described. PI3Kδ dependent pAkt phosphorylation in macrophage colony-stimulating factor (M-CSF) stimulated THP-1 cells was measured as previously described.

[3] = molecular target: Syk (Homo sapiens, UniProt P43405); assay: Enzymatic Syk kinase activity assay; type: biochemical
[4] = system: CHO-K1 cells; assay: CHO-K1 viability (ATPlite); type: cell-based
Description: The viability of NHBE and CHO-K1 cells was quantified using ATP as an indirect read out of the potential cytotoxicity of the compounds. […] Plates were shaken and covered with aluminium foil for 25 min. Luminescence was measured in an Envision reader (Perkin Elmer). Evaluation of viability in CHO-K1 cells was used as an internal compound cytotoxicity standard across cellular assays. […] The plates were incubated for 24 h at 37°C in 5% CO2. After the incubation period, the culture medium was removed and washed with 100 μl of DPBS. Test compounds were dissolved and serially diluted in 100% DMSO. A final 1/100 dilution of each concentration was performed using F12 culture medium with 0.5% FBS. A volume of 100 μl culture medium containing the compounds or 1% DMSO (for control wells) was added to the wells containing the cells and the plate was incubated again 24h. After 24h of compound exposure, cells were washed with DPBS. Then, 100 μl of PBS were added, followed by the addition of 100 μl of ATPlite™ reagent. The plate was shaken for 25 minutes using a microtiter plate shaker. Luminescence was measured using a Luminoskan Ascent luminometer (Thermo Fisher Scientific).
For CHO-K1 viability assays, a standard curve of cells was included in the plate. Luminescence values versus cell number were plotted and the data adjusted to a linear equation. Luminescence values of the samples were interpolated to obtain number of cells. IC50 values were obtained by non-linear regression using Activity Base software (IDBS) and a four-parameter log equation.

[5] = Homo sapiens, NHBE, 24 h, NHBE cells donor #1, poly I:C / IL-4, 24h, geometric mean, read-out: Inhibition of TSLP protein production (IC50, μM) (95% CI)
[6] = individual values, donor #1, read-out: Inhibition of TSLP production in NHBE (IC50)
[7] = Homo sapiens, LAD2, geometric mean, read-out: Activity in reference cell based assay (IC50, μM) (95% CI) LAD2 cells degranulation
[8] = Homo sapiens, LAD2, individual values, read-out: Cellular activity (IC50, mM) LAD2 cells degranulation
[9] = individual values, read-out: Cellular activity (IC50, mM) LAD2 cells degranulation
[10] = individual values, read-out: Biochemical activity (IC50, mM) (Syk)
[11] = Cricetulus griseus, CHO-K1, geometric mean, read-out: Inhibition of CHO viability (IC50, μM) (95% CI)
[12] = individual values, read-out: Inhibition of CHO viability (IC50 mM)
[13] = geometric mean, read-out: Activity in reference biochemical assay (IC50, μM) (95% CI) Syk

Row | IC50 [1, 5] [µM] | IC50 [1, 6] | IC50 [2, 7] [µM] | IC50 [2, 8] [µM] | IC50 [2, 9] [µM] | IC50 [3, 10] | IC50 [3, 13] [nM] | Structure (SMILES) | IC50 [4, 11] [µM] | IC50 [4, 12] | Inhibition of CHO viability % Inhibition ± SD at 3.75 μM [4] | Inhibition of CHO viability % at 3.75 micromolar ([4]; individual values) | IC50 ([4]; Cricetulus griseus, CHO-K1, individual values, read-out: Inhibition of CHO viability (IC50 mM)) [µM] | Inhibition of CHO viability % Inhibition ± SD at 3.12 μM ([4]; 3.12 μM) | Inhibition of CHO viability % at 3.12 micromolar ([4]; individual values)
1 | 0.302 | 0.584 µM and 0.2 µM and 0.237 µM | 0.182 | 0.183 | 0.181 | 24 nM and 22 nM | – | CCn1cc(-c2cccc(-c3cnc(N)c(C(=O)NC4C5CC6CC4CC(O)(C6)C5)n3)c2)cn1 (centres unmarked) [compound 9] | 7 | 8.21 µM and 7.68 µM and 4.44 µM and 9.37 µM and 6.42 µM | – | – | – | – | –
2 | 0.277 | 0.584 µM and 0.198 µM and 0.184 µM | 0.118 | 0.124 | 0.113 | 33.8 nM and 33.1 nM | 33 | COc1cc(-c2cnn(C)c2)cc(-c2cnc(N)c(C(=O)N[C@@H]3[C@@H]4C[C@@H]5C[C@H]3C[C@@](O)(C5)C4)n2)c1 [compound 10] | – | – | 35.3 % ± 5.5 | 42.5% and 36.2% and 31.8% and 30% | – | – | –
3 | 1.14 | 1.45 µM and 1.79 µM and 0.56 µM | 0.26 | 0.313 | 0.217 | 62 nM and 71 nM | 66 | Nc1ncc(-c2cccc(-c3cccnc3)c2)nc1C(=O)NC1C2CC3CC1CC(O)(C3)C2 (centres unmarked) [compound 11] | 7.85 | 8.4 µM and 7.19 µM and 7.56 µM | – | – | 8.33 | – | –
4 | 0.253 | 0.376 µM and 0.251 µM and 0.172 µM | 0.118 | 0.107 | 0.131 | 25 nM and 21 nM | 22 | Cn1cc(-c2cccc(-c3cnc(N)c(C(=O)NC4C5CC6CC4CC(O)(C6)C5)n3)c2)cn1 (centres unmarked) [compound 12] | – | – | 19 % ± 1 | 20.7% and 17.8% and 20.2% and 20.8% | – | – | –
5 | 0.19 | 0.365 µM and 0.164 µM and 0.116 µM | – | – | – | 397 nM and 280 nM | 334 | Nc1ncc(-c2ccc3[nH]ncc3c2)nc1C(=O)NC1C2CC3CC1CC(O)(C3)C2 (centres unmarked) [compound 13] | – | – | – | – | – | 36 % ± 3 | 39.6% and 37.7% and 35.3% and 31.4%
6 | 0.359 | 0.237 µM and 0.804 µM and 0.244 µM | 0.403 | 0.409 | 0.398 | 209 nM and 159 nM | – | Nc1ncc(-c2ccc3cn[nH]c3c2)nc1C(=O)NC1C2CC3CC1CC(O)(C3)C2 (centres unmarked) [compound 14] | – | – | 42 % ± 10 | 51.55% and 51.37% and 30.13% and 37.95% | – | – | –

Row | Structure (SMILES) | IC50 [1, 5] [µM] | IC50 [1, 6] | IC50 [2, 7] [µM] | IC50 [2, 8] [µM] | IC50 [2, 9] [µM] | IC50 [3, 10] | IC50 [3, 13] [nM] | IC50 [4, 11] [µM] | IC50 [4, 12] | Inhibition of CHO viability % Inhibition ± SD at 3.75 μM [4] | Inhibition of CHO viability % at 3.75 micromolar ([4]; individual values) | IC50 ([4]; Cricetulus griseus, CHO-K1, individual values, read-out: Inhibition of CHO viability (IC50 mM)) [µM] | Inhibition of CHO viability % Inhibition ± SD at 3.12 μM ([4]; 3.12 μM) | Inhibition of CHO viability % at 3.12 micromolar ([4]; individual values)
7 | COc1ccc(N(C)c2nc(C)nc3ccccc23)cc1 [compound 16] | 0.007 | – | – | – | – | – | – | 28.8 | – | – | – | – | – | 1.13% and 6.28% and -14.28% and -12.18%
